Assay results taken from patent publication US9802901B2, “Antibacterial 2H-indazole derivatives” (priority 2013, dated 2017).
Converted amounts (≈) assume the structure as drawn.

Tests used:
Assay in all cases: Bacterial growth minimal inhibitory concentration (broth microdilution, CLSI M7-A7)
E. coli ATCC25922 = type: cell-based, Escherichia coli; settings: cation-adjusted Mueller-Hinton Broth, microdilution, quinolone-sensitive strain; for MIC: Escherichia coli, ATCC25922, read-out: MIC for E. coli ATCC25922
How it was run: (§1)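 Broth microdilution in cation-adjusted Mueller-Hinton Broth per CLSI M7-A7; MICs reported in mg/L. K. pneumoniae A-651 and A. baumannii T6474 are multiply resistant, quinolone-resistant strains; E. coli ATCC25922 and P. aeruginosa ATCC27853 are quinolone-sensitive.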

P. aeruginosa ATCC27853 = type: cell-based, Pseudomonas aeruginosa; settings: cation-adjusted Mueller-Hinton Broth, microdilution, quinolone-sensitive strain; for MIC: Pseudomonas aeruginosa, ATCC27853, read-out: MIC for P. aeruginosa ATCC27853
How it was run: as §1

[1] = tested on: Acinetobacter baumannii T6474; type: cell-based; settings: cation-adjusted Mueller-Hinton Broth, microdilution, multiply-resistant (quinolone-resistant) strain; for MIC: Acinetobacter baumannii, T6474, read-out: MIC for A. Baumannii T6474
How it was run: as §1

K. pneumoniae A-651 = type: cell-based, Klebsiella pneumoniae; settings: cation-adjusted Mueller-Hinton Broth, microdilution, multiply-resistant (quinolone-resistant) strain; for MIC: Klebsiella pneumoniae, A651, read-out: MIC for K. Pneumoniae A-651
How it was run: as §1

Row | SMILES | MIC for E. coli ATCC25922 (E. coli ATCC25922) | MIC for P. aeruginosa ATCC27853 (P. aeruginosa ATCC27853) | MIC for A. Baumannii T6474 [1] | MIC for K. Pneumoniae A-651 (K. pneumoniae A-651) | MIC (E. coli ATCC25922) | MIC (P. aeruginosa ATCC27853) | MIC [1] | MIC (K. pneumoniae A-651)
1 | C[C@@](CCn1cc2cc(C#CC#CC3CCN(C(=O)CO)CC3)ccc2n1)(C(=O)NO)S(C)(=O)=O [Example 78] | 0.5 µg/mL | 1 µg/mL | 4 µg/mL | 2 µg/mL |  |  |  | 
2 | C[C@@](CCn1cc2cc(C#CC#CC3(CO)CCC3)ccc2n1)(C(=O)NO)S(C)(=O)=O [Example 73, (R)—N-hydroxy-4-(5-((1-(hydroxymethyl)cyclobutyl)buta-1,3-diyn-1-yl)-2H-indazol-2-yl)-2-methyl-2-(methylsulfonyl)butanamide] |  |  |  |  | 0.125 µg/mL (≈ 0.282 µM) | 1 µg/mL (≈ 2.25 µM) | 32 µg/mL (≈ 72.1 µM) | 0.25 µg/mL (≈ 0.564 µM)
3 | CN(C)C1(c2ccc(C#Cc3ccc4nn(CC[C@](C)(C(=O)NO)S(C)(=O)=O)cc4c3)cc2)COC1.Cc1ccc(S(=O)(=O)O)cc1 [Example 30, (R)-4-{5-[4-(3-dimethylamino-oxetan-3-yl)-phenylethynyl]-indazol-2-yl}-N-hydroxy-2-methylsulfonyl-2-methyl-butanamide toluene-4-sulfonic acid salt] |  |  |  |  | 1 µg/mL | 4 µg/mL | 2 µg/mL | 2 µg/mL
4 | C[C@@](CCn1cc2cc(C#CC#CC3CCNCC3)ccc2n1)(C(=O)NO)S(C)(=O)=O [Example 76, (R)—N-hydroxy-2-methyl-2-(methylsulfonyl)-4-(5-(piperidin-4-ylbuta-1,3-diyn-1-yl)-2H-indazol-2-yl)butanamide] |  |  |  |  | 8 µg/mL (≈ 18.1 µM) | 2 µg/mL (≈ 4.52 µM) | > 32 µg/mL | 32 µg/mL (≈ 72.3 µM)
5 | C[C@@](CCn1cc2cc(C#CC#CC34CC(CO)(C3)C4)ccc2n1)(C(=O)NO)S(C)(=O)=O [Example 57, (R)—N-hydroxy-4-(5-((3-(hydroxymethyl)bicyclo[1.1.1]pentan-1-yl)buta-1,3-diyn-1-yl)-2H-indazol-2-yl)-2-methyl-2-(methylsulfonyl)butanamide] |  |  |  |  | 0.125 µg/mL (≈ 0.274 µM) | 0.5 µg/mL (≈ 1.1 µM) | 8 µg/mL (≈ 17.6 µM) | 0.25 µg/mL (≈ 0.549 µM)
6 | C[C@@](CCn1cc2cc(C#CC#CC3(CO)CC3)ccc2n1)(C(=O)NO)S(C)(=O)=O [Example 56, (R)—N-hydroxy-4-(5-((1-(hydroxymethyl)cyclopropyl)buta-1,3-diyn-1-yl)-2H-indazol-2-yl)-2-methyl-2-(methylsulfonyl)butanamide] |  |  |  |  | 0.25 µg/mL (≈ 0.582 µM) | 0.5 µg/mL (≈ 1.16 µM) | > 32 µg/mL | 0.5 µg/mL (≈ 1.16 µM)
7 | C[C@@](CCn1cc2cc(-c3ccc(OCCO)cc3F)ccc2n1)(C(=O)NO)S(C)(=O)=O [Example 50, (R)-4-(5-(2-fluoro-4-(2-hydroxyethoxy)phenyl)-2H-indazol-2-yl)-N-hydroxy-2-methyl-2-(methylsulfonyl)butanamide] |  |  |  |  | 0.5 µg/mL (≈ 1.07 µM) | 2 µg/mL (≈ 4.3 µM) | 2 µg/mL (≈ 4.3 µM) | 1 µg/mL (≈ 2.15 µM)
8 | C[C@@](CCn1cc2cc(C#CC#C[C@@]3(F)C[C@@H]3CO)ccc2n1)(C(=O)NO)S(C)(=O)=O [Example 74, (R)-4-(5-(((1R,2R)-1-fluoro-2-(hydroxymethyl)cyclopropyl)buta-1,3-diyn-1-yl)-2H-indazol-2-yl)-N-hydroxy-2-methyl-2-(methylsulfonyl)butanamide] |  |  |  |  | 0.125 µg/mL (≈ 0.279 µM) | 0.5 µg/mL (≈ 1.12 µM) | 4 µg/mL (≈ 8.94 µM) | 0.125 µg/mL (≈ 0.279 µM)
9 | COc1ccc(-c2ccc3nn(CC[C@](C)(C(=O)NO)S(C)(=O)=O)cc3c2)c(F)c1 [Example 1, (R)-4-[5-(2-fluoro-4-methoxy-phenyl)-indazol-2-yl]-N-hydroxy-2-methylsulfonyl-2-methyl-butanamide] |  |  |  |  | 0.063 µg/mL (≈ 0.145 µM) | 2 µg/mL (≈ 4.59 µM) | 1 µg/mL (≈ 2.3 µM) | 0.063 µg/mL (≈ 0.145 µM)
10 | C[C@@](CCn1cc2cc(C#CC#CC3(O)COC3)c(F)cc2n1)(C(=O)NO)S(C)(=O)=O [Example 31, (R)-4-{6-fluoro-5-[4-(3-hydroxy-oxetan-3-yl)-buta-1,3-diynyl]-indazol-2-yl}-N-hydroxy-2-methylsulfonyl-2-methyl-butanamide] |  |  |  |  | 1 µg/mL (≈ 2.22 µM) | 2 µg/mL (≈ 4.45 µM) | > 32 µg/mL | 1 µg/mL (≈ 2.22 µM)
11 | C[C@@](CCn1cc2c(F)c(C#CC#C[C@H]3C[C@@H]3CO)ccc2n1)(C(=O)NO)S(C)(=O)=O [Example 54, (R)-4-(4-fluoro-5-(((1S,2S)-2-(hydroxymethyl)cyclopropyl)buta-1,3-diyn-1-yl)-2H-indazol-2-yl)-N-hydroxy-2-methyl-2-(methylsulfonyl)butanamide] |  |  |  |  | ≤ 0.063 µg/mL | 0.5 µg/mL (≈ 1.12 µM) | 4 µg/mL (≈ 8.94 µM) | ≤ 0.063 µg/mL
12 | CC(CCn1cc2cc(CCc3ccccc3)ccc2n1)(C(=O)NO)S(C)(=O)=O (racemic) [RE5, (RS)—N-hydroxy-2-methylsulfonyl-2-methyl-4-(5-phenethyl-indazol-2-yl)-butanamide] |  |  |  |  | 0.5 µg/mL (≈ 1.2 µM) | 8 µg/mL (≈ 19.3 µM) | 0.25 µg/mL (≈ 0.602 µM) | 2 µg/mL (≈ 4.81 µM)
13 | C[C@@](CCn1cc2cc(-c3ccc(C#C[C@H]4C[C@@H]4CO)cc3)ccc2n1)(C(=O)NO)S(C)(=O)=O (relative stereo) [Example 60, (R)—N-hydroxy-4-(5-(4-(((1S*,2S*)-2-(hydroxymethyl)cyclopropyl)ethynyl)phenyl)-2H-indazol-2-yl)-2-methyl-2-(methylsulfonyl)butanamide] |  |  |  |  | ≤ 0.063 µg/mL | 0.5 µg/mL (≈ 1.04 µM) | ≤ 0.063 µg/mL | 0.125 µg/mL (≈ 0.26 µM)
14 | C[C@H](O)c1ccc(C#Cc2ccc3nn(CC[C@](C)(C(=O)NO)S(C)(=O)=O)cc3c2)cc1 [Example 34] | 0.063 µg/mL | 0.5 µg/mL | 1 µg/mL | 0.125 µg/mL |  |  |  | 
15 | C[C@@](CCn1cc2cc(C#CC#CC3(O)CCOCC3)ccc2n1)(C(=O)NO)S(C)(=O)=O [Example 15, (R)—N-hydroxy-4-(5-((4-hydroxytetrahydro-2H-pyran-4-yl)buta-1,3-diyn-1-yl)-2H-indazol-2-yl)-2-methyl-2-(methylsulfonyl)butanamide] |  |  |  |  | 2 µg/mL (≈ 4.35 µM) | 2 µg/mL (≈ 4.35 µM) | > 32 µg/mL | 2 µg/mL (≈ 4.35 µM)
16 | C[C@@](CCn1cc2cc(C#CC#CC3CCN(C(=O)CN)CC3)ccc2n1)(C(=O)NO)S(C)(=O)=O.O=CO [Example 83, (R)-4-(5-((1-glycylpiperidin-4-yl)buta-1,3-diyn-1-yl)-2H-indazol-2-yl)-N-hydroxy-2-methyl-2-(methylsulfonyl)butanamide formate] |  |  |  |  | 2 µg/mL | 4 µg/mL | 32 µg/mL | 8 µg/mL
17 | C[C@@](CCn1cc2cc(-c3ccc(-n4nccn4)cc3)ccc2n1)(C(=O)NO)S(C)(=O)=O [Example 12, (R)—N-hydroxy-2-methylsulfonyl-2-methyl-4-[5-(4-[1,2,3]triazol-2-yl-phenyl)-indazol-2-yl]-butanamide] |  |  |  |  | 0.063 µg/mL (≈ 0.139 µM) | 2 µg/mL (≈ 4.4 µM) | 1 µg/mL (≈ 2.2 µM) | 0.125 µg/mL (≈ 0.275 µM)
18 | COc1ccc(-c2ccc3nn(CC[C@](C)(C(=O)NO)S(C)(=O)=O)cc3c2F)cc1 [Example 4, (R)-4-[4-fluoro-5-(4-methoxy-phenyl)-indazol-2-yl]-N-hydroxy-2-methylsulfonyl-2-methyl-butanamide] |  |  |  |  | 0.125 µg/mL (≈ 0.287 µM) | 4 µg/mL (≈ 9.19 µM) | 2 µg/mL (≈ 4.59 µM) | 0.5 µg/mL (≈ 1.15 µM)
19 | C[C@@](CCn1cc2cc(C#Cc3ccc(NC(=O)CO)cc3)ccc2n1)(C(=O)NO)S(C)(=O)=O [Example 47, (R)—N-hydroxy-4-(5-((4-(2-hydroxyacetamido)phenyl)ethynyl)-2H-indazol-2-yl)-2-methyl-2-(methylsulfonyl)butanamide] |  |  |  |  | 0.25 µg/mL (≈ 0.516 µM) | 1 µg/mL (≈ 2.06 µM) | 1 µg/mL (≈ 2.06 µM) | 0.5 µg/mL (≈ 1.03 µM)
20 | C[C@@](CCn1cc2c(F)c(C#Cc3ccc(C4(O)COC4)cc3)ccc2n1)(C(=O)NO)S(C)(=O)=O [Example 29, (R)-4-{4-fluoro-5-[4-(3-hydroxy-oxetan-3-yl)-phenylethynyl]-indazol-2-yl}-N-hydroxy-2-methylsulfonyl-2-methyl-butanamide] |  |  |  |  | 0.25 µg/mL (≈ 0.498 µM) | 1 µg/mL (≈ 1.99 µM) | 0.5 µg/mL (≈ 0.997 µM) | 0.25 µg/mL (≈ 0.498 µM)
21 | C[C@@](CCn1cc2cc(C#Cc3ccc(C4(CO)CC4)cc3)ccc2n1)(C(=O)NO)S(C)(=O)=O [Example 16, (R)—N-hydroxy-4-(5-((4-(1-(hydroxymethyl)cyclopropyl)phenyl)ethynyl)-2H-indazol-2-yl)-2-methyl-2-(methylsulfonyl)butanamide] |  |  |  |  | 0.125 µg/mL (≈ 0.26 µM) | 1 µg/mL (≈ 2.08 µM) | 0.5 µg/mL (≈ 1.04 µM) | 0.125 µg/mL (≈ 0.26 µM)
22 | C[C@@](CCn1cc2cc(C#CC#CC3(CO)COC3)ccc2n1)(C(=O)NO)S(C)(=O)=O [Example 68, (R)—N-hydroxy-4-(5-((3-(hydroxymethyl)oxetan-3-yl)buta-1,3-diyn-1-yl)-2H-indazol-2-yl)-2-methyl-2-(methylsulfonyl)butanamide] |  |  |  |  | 1 µg/mL (≈ 2.24 µM) | 1 µg/mL (≈ 2.24 µM) | > 32 µg/mL | 1 µg/mL (≈ 2.24 µM)
23 | C[C@@]1(C#CC#Cc2ccc3nn(CC[C@](C)(C(=O)NO)S(C)(=O)=O)cc3c2)C[C@H]1CO [Example 67, (R)—N-hydroxy-4-(5-(((1R,2R)-2-(hydroxymethyl)-1-methylcyclopropyl)buta-1,3-diyn-1-yl)-2H-indazol-2-yl)-2-methyl-2-(methylsulfonyl)butanamide] |  |  |  |  | 0.125 µg/mL (≈ 0.282 µM) | 0.25 µg/mL (≈ 0.564 µM) | 32 µg/mL (≈ 72.1 µM) | 0.125 µg/mL (≈ 0.282 µM)
24 | C[C@@](CCn1cc2cc(C#Cc3ccc(C4(CO)COC4)cc3)ccc2n1)(C(=O)NO)S(C)(=O)=O [Example 43, (R)—N-hydroxy-4-(5-((4-(3-(hydroxymethyl)oxetan-3-yl)phenyl)ethynyl)-2H-indazol-2-yl)-2-methyl-2-(methylsulfonyl)butanamide] |  |  |  |  | 1 µg/mL (≈ 2.01 µM) | 2 µg/mL (≈ 4.02 µM) | 2 µg/mL (≈ 4.02 µM) | 1 µg/mL (≈ 2.01 µM)
